Measurements: patent publication US20070027109A1 (priority 2002, published 2007)
“And” between values parts separate entries of the source, which are not always exact repeats. Equal values may be shown once. Read-outs that look alike come from different tables or passages of the source.

How the values were obtained:
[1] = tested on: HIV-1 RoJo; experiment: PBMC assay, HIV-1 RoJo replication (RT activity); type: cell-based; settings: for IC50 (50% inhibition of virus replication): 6 days; for anti-viral activity against HIV-1 RoJo virus: in vitro; for IC50: RoJo, PBMC
Source text: Human peripheral blood mononuclear cells from a minimum of two donors, that have been blasted with PHA and IL-2, were counted, viability determined by Trypan Blue dye exclusion and mixed in equal ratios. Pooled donors were used to minimize the variability observed between individual donors which results from quantitative and qualitative differences in HIV infection and overall response to the PHA and IL-2 of primary lymphocyte populations. […] Fifty microliters of cells were then distributed to the inner 60 wells of a 96 well round bottom microtiter culture plate in a standard format developed by the Infectious Disease Research department of Southern Research Institute. Each plate contains cell control wells (cells only), virus control wells (cells plus virus), and experimental wells (drug plus cells plus virus). Serially diluted compounds were added to the microtiter plate followed by the appropriate pretitered dilution of HIV-1 RoJo. All samples were assayed in triplicate with a replicate plate without virus for the determination of compound toxicity. The final volume per well was 200 μL. The assay was incubated for 6 days in a humidified atmosphere at 37° C., 5% CO2, after which supernatants were collected, for analysis of RT activity and sister plates analyzed for cell viability by MTS dye reduction. Wells were also examined microscopically and any abnormalities noted.
Reverse transcriptase (RT) activity was measured in cell-free supernatants. Tritiated thymidine triphosphate (NEN) (TTP) was resuspended in distilled H2O at 5 Ci/mL. Poly rA and oligo dT were prepared as a stock solution which was kept at −20° C. The RT reaction buffer was prepared fresh on a daily basis and consists of 125 μL 1.0 M EGTA, 125 μL dH2O, 110 μL 10% SDS, 50 μL 1.0 M Tris (pH 7.4), 50 μL 1.0 M DTT, and 40 μL 1.0 M MgCl2. These three solutions were mixed together in a ratio of two parts TTP, one part poly rA:oligo dT, and one part reaction buffer. Ten microliters of this reaction mixture were placed in a round bottom microtiter plate and 15 μL of virus containing supernatant was added and mixed. The plate was incubated at 37° C. in a water bath with a solid support to prevent submersion of the plate and incubated for 60 minutes. Following reaction, the reaction volume was spotted onto pieces of DE81 paper, washed 5 times for 5 minutes each in a 5% sodium phosphate buffer, two times for one minute each in distilled water, two times for one minute each in 70% ethanol, and then dried.
The IC50 and TC50 values were calculated by linear regression. The TI represents the ratio of the TC50/IC50, and is used to determine relative potency between compounds.

[2] = tested on: Subtype B 302056 (91US056); experiment: PBMC assay, HIV-1 subtype B; type: cell-based
[3] = tested on: Subtype C BR/92/025; experiment: PBMC assay, HIV-1 subtype C; type: cell-based; settings: Subtype C BR/92/025, PBMC
[4] = tested on: Subtype E CMU02; experiment: PBMC assay, HIV-1 subtype E; type: cell-based
[5] = tested on: Subtype F BR/93/020; experiment: PBMC assay, HIV-1 subtype F; type: cell-based; settings: Subtype F BR/93/020, PBMC
[6] = tested on: Subtype G Jv1083; experiment: PBMC assay, HIV-1 subtype G; type: cell-based
[7] = tested on: MDR769; settings: MDR769, PBMC
Protocol: (§1) Human immunodeficiency virus type 1 (HIV-1) strains Ba-L, ADA, SIVmac251, HIV-2 (CDC3 10319) and the subtype representative strains (Table 6) were obtained from the NIAID AIDS Research and Reference Reagent Program. The low passage pediatric isolates SLKA, WeJo and TeKi were derived in the laboratories of Southern Research Institute.
PBMC assays were carried out as described in Example 6.
Reverse transcriptase (RT) activity was measured in cell-free supernatants as described in Example 6.

[8] = tested on: SIVmac251; experiment: PBMC assay, SIVmac251; type: cell-based, SIV
[9] = tested on: monocyte/macrophages; experiment: MTS staining for cell viability, monocyte/macrophages; type: cell-based, human
Source text: Peripheral blood monocytes were isolated from normal HIV-1 negative donors by plastic adherence following ficoll hypaque purification of the buffy coat, as described above for PBMCs. In many cases the same donor used to produce the PBMC populations was also used to produce monocyte/macrophages, however unlike PBMC population monocyte/macrophage, donors were never pooled. […] The monocytes were released from the plastic by vigorous pipetting with Ca^2+ and Mg^2+ free PBS. […] The monocytes (1×10^5 per 0.2 cm well) were then cultured for six days, allowing maturation of the cells to a macrophagelike phenotype. […] Cultures were washed a final time by media removal 24 hours post infection, fresh compound added and the cultures continued for an additional six days. The assays were preformed using a standardized microtiter plate format, which uses only the inner 60 wells of a 96 well plate for assay purposes. The outer rows contain media and acts an a evaporation barrier. Each plate contains cell control wells (cells only), virus control wells (cells plus virus), and experimental wells (drug plus cells plus virus). HIV p24 antigen content to assess virus replication was measured at assay termination by a commercially available p24 ELISA assay (Coulter) on cell-free supernatants, and compound cytotoxicity by MTS dye reduction. […]

[10] = tested on: Subtype A RW/92/016; experiment: PBMC assay, HIV-1 subtype A; type: cell-based; settings: Subtype A RW/92/016, PBMC
[11] = tested on: Subtype D UG/92/046; experiment: PBMC assay, HIV-1 subtype D; type: cell-based; settings: Subtype D UG/92/046, PBMC
[12] = tested on: Subtype O BCOF-01; experiment: PBMC assay, HIV-1 subtype O; type: cell-based; settings: Subtype O BCOF-01, PBMC
[13] = tested on: WeJo; experiment: PBMC assay, HIV-1 WeJo; type: cell-based
[14] = tested on: SLKA; experiment: PBMC assay, HIV-1 SLKA; type: cell-based
[15] = tested on: TEKI; experiment: PBMC assay, HIV-1 TEKI; type: cell-based
[16] = tested on: HIV-1 ADA; experiment: Monocyte/macrophage assay, HIV-1 ADA (p24 ELISA); type: cell-based; settings: monocytes
Source text: (§2) Peripheral blood monocytes were isolated from normal HIV-1 negative donors by plastic adherence following ficoll hypaque purification of the buffy coat, as described above for PBMCs. In many cases the same donor used to produce the PBMC populations was also used to produce monocyte/macrophages, however unlike PBMC population monocyte/macrophage, donors were never pooled. Following a two hour adherence in RPMI 1640 without phenol red supplemented with 10% human pooled AB serum (heat inactivated), 2 mM L-glutamine, 100 U/mL penicillin, 100 μg/mL streptomycin, 10 μg/mL gentamycin, cultures were washed to remove non-adherent cells. […] Adherent cells were assessed for purity by nonspecific esterase staining (a-napthyl butyrate specific esterase, Sigma Chemical Co.), and/or viability by Trypan Blue dye exclusion, counted and resuspended in RPMI 1640 supplemented with 10% Fetal Bovine Serum (heat inactivated), 2 mM L-glutamine, 100 U/mL penicillin, 100 μg/mL streptomycin, 10 μg/mL gentamycin at 1×10^6 monocytes per ml. […] HIV p24 antigen content to assess virus replication was measured at assay termination by a commercially available p24 ELISA assay (Coulter) on cell-free supernatants, and compound cytotoxicity by MTS dye reduction. […]
(§3) ELISA kits were purchased from Coulter Electronics. […] Control curves were generated in each assay to accurately quantitate the amount of p24 antigen in each sample. […]

[17] = tested on: HIV-1 Ba-L; experiment: Monocyte/macrophage assay, HIV-1 Ba-L (p24 ELISA); type: cell-based; settings: monocytes
Source text: as §2, §3

[18] = tested on: HIV-2 (CDC 310319); experiment: PBMC assay, HIV-2; type: cell-based
[19] = tested on: HIV-1 clinical isolates, SIV and HIV-2; settings: all viruses of Table 8
Protocol: The inhibition of HIV-1 ADA and BaL replication in monocyte/macrophages was also assessed.
as §1

[20] = IC50 basis, HIV-1 RoJo, PBMCs, Example 6

dextran sulfate, 17-20% sulfur, molecular weight 39,700 [DES 17-20% Sulfation]
IC50 (50% inhibition of virus replication) ([1]; HIV-1 RoJo, PBMCs, Example 6): 0.5 µg/mL and 1.0 µg/mL
anti-viral activity against HIV-1 RoJo virus [1]: significant anti-viral activity

sulfated dextran, 12.2% sulfur, molecular weight 36,000 [DES 12.5% Sulfation]
IC50 (50% inhibition of virus replication) ([1]; HIV-1 RoJo, PBMCs, Example 6): 1.6 µg/mL
IC50 ([1]; Example 7): .7 µg/mL
anti-viral activity against HIV-1 RoJo virus [1]: significant anti-viral activity
IC50 [2]: .8 µg/mL
IC50 [3]: 10.3 µg/mL
IC50 [4]: .7 µg/mL
IC50 [5]: .3 µg/mL
IC50 [6]: 11.7 µg/mL
IC50 [7]: .7 µg/mL
IC50 [8]: .6 µg/mL

Cc1cn([C@H]2C[C@H](N=[N+]=[N-])[C@@H](CO)O2)c(=O)[nH]c1=O [AZT]
IC50 ([1]; Example 7, read-out: IC50): 2 nM
CC50 [9]: 1000 nM
IC50 [10]: 1 nM
IC50 ([2]; read-out: IC50): 10 nM
IC50 ([3]; read-out: IC50): 5 nM
IC50 [11]: 1 nM
IC50 ([5]; read-out: IC50): 3 nM
IC50 ([6]; read-out: IC50): 6 nM
IC50 [12]: 3 nM
IC50 [13]: 3 nM
IC50 [14]: 2 nM
IC50 [15]: 10 nM
IC50 [16]: 7 nM
IC50 [17]: 4 nM
IC50 ([8]; read-out: IC50): 2 nM
IC50 ([18]; read-out: IC50): 0.4 nM

sulfated dextran, 9.5% sulfur, molecular weight 30,000 [DES 9.5% Sulfation]
fold less active than DES […] Sulfation ([1]; HIV-1 RoJo infected PBMCs, Example 7): 37 fold
IC50 (50% inhibition of virus replication) ([1]; HIV-1 RoJo, PBMCs, Example 6): 19.4 µg/mL
fold less active than DES 17-20% Sulfation [1, 20]: 39 fold
fold less active than DES […] Sulfation [1, 20]: 12 fold
anti-viral activity against HIV-1 RoJo virus [1]: significant anti-viral activity
IC50 [6]: > 100 µg/mL
IC50 [7]: 13 µg/mL
IC50 [18]: 5.1 µg/mL
IC50s, range over the virus panel [19]: 5.1 to >100 μg/ml
